Laboratory results: patent US12115172B2, “Sulfate-free cleansing composition that confers high salicylic acid deposition” (L'OREAL, priority 2021, dated 2024)

Experiment: HLB value of the surfactant
Assay type: physicochemical
Details: of the 30% anionic surfactant used in the composition
Text: The term “Hydrophilic-Lipophilic Balance” or “HLB,” refers to an empirical expression for the relationship of the hydrophilic and hydrophobic groups of an emulsifier. This term is well known to those skilled in the art. See, e.g., “The HLB system.

Molecule | HLB VALUE
CCCCCCCCCCCCOS(=O)(=O)[O-].[Na+] [SODIUM LAURYL SULFATE] | 40.1
DECYL GLUCOSIDE (APGS) | 13
SODIUM COCOYL GLYCINATE | 14
SODIUM LAUROYL SARCOSINATE | 29.8
